Measurements from PMC12668308, “A Novel Antimalarial Agent that Inhibits Protein Synthesis in Plasmodium falciparum” (Angewandte Chemie (International Ed. in English), 2025).
Like-named read-outs stand apart in the source and are kept apart here.

Assays:
[1] = system: Plasmodium RESA N-terminal domain-containing protein (W7KFM4); test: iSPP profiling, P. falciparum lysate; type: binding, Plasmodium falciparum; conditions: 100 µM compound 34
Protocol: (§1) P. falciparum NF54 lysates were extracted as described in ^[26^] . The parasite asynchronous culture was extracted once 3-5% parasitemia was reached. Saponin lysis was done as described in 2.2.10. Once the parasite pellet was obtained, 2.5 volumes of ice-cold lysis buffer (50 mM Tris/HCl pH 7.5 (Avantor), 5% glycerol (Sigma-Aldrich), 150 mM NaCl (Carl Roth), 1.5 mM MgCl2 (Sigma-Aldrich), 1 mM DTT (Carl Roth), 0.8% IGEPAL CA-630 (Sigma-Aldrich), 1X Halt Protease and Phosphatase Inhibitor-Cocktails EDTA-free (Thermo Fisher Scientific)) was added to the parasite pellet. The lysate solution was subjected to three cycles of flash freeze-thaw with liquid nitrogen and ddH2O at RT. The lysates were centrifuged at 20,000 g for 20 minutes at 4 °C. The soluble protein fraction (supernatant) was collected and the protein content was quantified using the BCA assay (Pierce™ BCA Protein Assay Kit, Thermo Fisher Scientific). The lysate was stored at -80 °C until further use.
(§2) The P. falciparum lysate was thawed on ice and diluted to 0.8 mg/mL. The lysate was aliquoted, and each aliquot was incubated with either a vehicle control (DMSO), 34 (dissolved in DMSO), or varying concentrations of 31 (dissolved in DMSO) at 0.01 µM, 0.1 µM, 10 µM, 50 µM, and 100 µM. Subsequently, the samples were incubated at room temperature for 30 minutes using a rotating mixer. After distribution into a 96-well plate, the samples were treated with increasing concentrations of A.E.A. (v/v) ranging from 14% to 28% (14, 16, 18, 20, 22, 24, 26, and 28%). Following a 20-minute incubation at 37°C with shaking at 750 rpm, the samples were centrifuged at 4400 g for 35 minutes to remove precipitated proteins. The soluble fractions were then pooled in equal volumes into a single sample using the Bravo Automated Liquid Handling Platform. The pooled samples were subsequently prepared for LC-MS/MS analysis.
(§3) The raw LFQ-DIA intensity values of biological replicates across all conditions were normalized to the median abundance using Excel. The normalized values were then log2 transformed in Perseus (v2.0.10.0).^[58^] Missing values were imputed from a normal distribution (width 0.3, down shift 1.5), and p-values were obtained using a two-sample t-test over replicates with a permutation-based false discovery rate correction (FDR 0.05). Volcano plots were generated in RStudio using the EnhancedVolcano package (v. 1.20.0), ^[59^] plotting proteins by statistical significance (y-axis: –Log10 p-value) versus the magnitude of change (x-axis: log2 fold change of protein intensities for each compound condition relative to the vehicle control). The heatmap was generated in Perseus (v2.0.10.0). Dose-dependent curves were generated using normalized protein intensity values, expressed as a ratio to the vehicle control. Plots were created in GraphPad Prism (v8.3.0) using a nonlinear regression model.

[2] = system: Uncharacterized protein (W7JSC9); test: iSPP profiling, P. falciparum lysate; type: binding, Plasmodium falciparum; conditions: 100 µM compound 34
Protocol: as §1, §2, §3

Dd2b2^31-R1.1 = test: [3H]-hypoxanthine incorporation assay; type: cell-based, Plasmodium falciparum
Protocol: (§4) P. falciparum asexual blood stage parasites were cultured in human red blood cells (RBC, Blutspende SRK, Zurich) at a hematocrit of 5% in RPMI 1640 medium. The RPMI 1640 medium (ThermoFisher Scientific #51800−043) was supplemented with the following: 24 mM NaHCO3 (pH 7.3, Sigma-Aldrich #31437−500G-R), 25 mM Hepes (Sigma-Aldrich #H4034−500G), 0.36 mM hypoxanthine (Sigma-Aldrich # H9377−25G), 100 µg mL^-1 neomycin (Sigma-Aldrich #N6386−100G) and 0.5% Albumax II (Thermo Fisher #11021−045). Additionally, 2 mM choline chloride (279 mg/L, Sigma-Aldrich #C7527−100G) was added to the culture to block the induction of sexual commitment as described. ^[31^] The RPMI 1640 medium and components were dissolved in water (Milli-Q purified), stirred for at least 3 h, and then sterile filtered (0.22 μm pore size) with a bottle top filter (Corning # 431118). Parasite cultures were maintained in an atmosphere of 3% O2, 4% CO2, and 93% N2 in air-tight chambers at 37 °C. The [^3H]-hypoxanthine incorporation assay was used to test compound activity in the specific parasite lines as described.^[32^] Briefly, compounds were dissolved in DMSO (10 mM) and diluted in a hypoxanthine-free culture medium. A limiting dilution was performed over a 64-fold range (6-step twofold dilution) in a 96-well plate in duplicates. For every starting concentration, a limiting dilution was performed over a 64-fold range (6-step twofold dilution) in a 96-well plate in two biological duplicates. Parasites were added at 100 µL to each well containing the compound to obtain a final parasitemia of 0.3% and haematocrit of 1.25%. The plates were incubated for 48 h before 0.25 µCi of [^3H]-hypoxanthine was added per well for an additional 24 h. Parasites were harvested on a glass-fiber filter with a Microbeta FilterMate cell harvester (Perkin Elmer, Waltham, USA) and radioactivity was counted using a MicroBeta2 liquid scintillation counter (Perkin Elmer, Waltham, US). […] The fifty percent inhibitory concentration (IC50) was calculated by using nonlinear, four parameter (variable slope) curve fitting as described ^[33^] after importing into GraphPad Prism (version 8.3.0).
(§5) 31 was used for resistance selection studies using the strain Dd2b2 (kindly provided by David Fidock). Resistance selection was done as described in ^[34^]. As summarized in Table S3, an initial inoculum of 2 x 10^9 asexual blood stage parasites (at 2-2.5% parasitemia) were cultured in three independent flasks. […] Cloning via limiting dilution was performed to obtain resistant clones for further characterization as described in section 2.2.5.

Dd2b2^31-R1.2 = test: [3H]-hypoxanthine incorporation assay; type: cell-based, Plasmodium falciparum
Protocol: as §4, §5

Dd2b2^31-R2.1 = test: [3H]-hypoxanthine incorporation assay; type: cell-based, Plasmodium falciparum
Protocol: as §4, §5

Dd2b2^31-R2.2 = test: [3H]-hypoxanthine incorporation assay; type: cell-based, Plasmodium falciparum
Protocol: as §4, §5

Dd2b2^31-R3.1 = test: [3H]-hypoxanthine incorporation assay; type: cell-based, Plasmodium falciparum
Protocol: as §4, §5

Dd2b2^31-R3.2 = test: [3H]-hypoxanthine incorporation assay; type: cell-based, Plasmodium falciparum
Protocol: as §4, §5

Dd2b2^WT = test: [3H]-hypoxanthine incorporation assay; type: cell-based, Plasmodium falciparum; conditions: for IC50: Plasmodium falciparum
Protocol: as §4, §5

[3] = Plasmodium falciparum, read-out: mean IC50 value ± s.d.

O=C(Nc1cc(CN2CCOCC2)ccc1F)c1cccc(Oc2cc(C(F)(F)F)ccn2)c1 [Compound 34, N-(2-Fluoro-5-(morpholinomethyl)phenyl)-3-((4-(trifluoromethyl)pyridin-2-yl)oxy)benzamide]
log2FC [1]: 0.3623
log2FC [2]: 0.457

CN1CCN(Cc2ccc(O)c(NC(=O)c3cccc(Oc4cc(C(F)(F)F)ccn4)c3)c2)CC1 [Compound 31, N-(2-hydroxy-5-((4-methylpiperazin-1-yl)methyl)phenyl)-3-((4-(trifluoromethyl)pyridin-2-yl)oxy)benzamide]
IC50 fold change relative to Dd2b2^WT (Dd2b2^31-R1.1; Dd2b2^31-R1.1): 2.7
IC50 (Dd2b2^31-R1.1; [3]): 35.8 ± 11.2 nM
IC50 fold change relative to Dd2b2^WT (Dd2b2^31-R1.2; Dd2b2^31-R1.2): 11.9
IC50 (Dd2b2^31-R1.2; [3]): 159 ± 32.9 nM
IC50 fold change relative to Dd2b2^WT (Dd2b2^31-R2.1; Dd2b2^31-R2.1): 16.9
IC50 (Dd2b2^31-R2.1; [3]): 225 ± 35.3 nM
IC50 fold change relative to Dd2b2^WT (Dd2b2^31-R2.2; Dd2b2^31-R2.2): 11.6
IC50 (Dd2b2^31-R2.2; [3]): 154 ± 26.3 nM
IC50 fold change relative to Dd2b2^WT (Dd2b2^31-R3.1; Dd2b2^31-R3.1): 14.5
IC50 (Dd2b2^31-R3.1; [3]): 192 ± 35.3 nM
IC50 fold change relative to Dd2b2^WT (Dd2b2^31-R3.2; Dd2b2^31-R3.2): 19.8
IC50 (Dd2b2^31-R3.2; [3]): 264 ± 40.5 nM
IC50 fold change relative to Dd2b2^WT (Dd2b2^WT; Dd2b2^WT): 1.0
IC50 (Dd2b2^WT; 72 h, read-out: Parent (Dd2b2^WT) IC50): 4.5 ± 0.7 nM
IC50 (Dd2b2^WT; read-out: mean IC50 value ± s.d.): 13.3 ± 1.7 nM
